Values of other authors in patent EP0665714B1, “GRANULAR WATER SOLUBLE OR HYGROSCOPIC AGRICULTURAL FORMULATIONS AND METHODS OF MAKING THEM” (BASF CORPORATION, priority 1992, dated 1994).

Details: in general

C[N+]1(C)CCCCC1.[Cl-] [mepiquat chloride, 1,1-dimethylpiperidinium chloride]
water solubility: more than 600 g/l
